Paper PMC11984586, “A novel spider toxin as a selective antagonist of the Kv1 subfamily of voltage-gated potassium channels through gating modulation” (The Journal of Biological Chemistry, 2025)
Read-outs that look alike come from different tables or passages of the source. Bridge positions count the residues as written; N and C are the ends. Peptide text beside a SMILES is read from it.

Assays:
[1] = target: T1, hKv1.3 (Homo sapiens, UniProt P22001); assay: Whole-cell patch clamp, Kv1.3 ionic current in CHO-K1 cells; assay type: cell-based; details: mean ± SD; for IC50: 500 ms depolarization to +30 mV from −80 mV holding, CHO-K1, room temperature
T1 construct: expressed in transfected cells; host or cells: CHO-K1
Method: (§1) The cDNA of hKv1.1, hKv1.2, hKv1.3, rKv1.4, hKv1.5, mKv1.6, and hKv1.7 were subcloned into mammalian expression vectors pcDNA3.1 or pCMV-blank vectors, as well as other plasmids described previously ([35]). Channel mutants were generated by site-directed mutations. Briefly, the parental channel plasmid was amplified using a pair of oppositely directed primers harboring the designed mutation site, with KOD Fx (TOYOBO Co, Ltd). The resulting PCR mix was treated with FastDigest DpnI (Thermo Fisher Scientific) to remove the methylated template. Ten microliters of the digested product was then used to transform 100 μl E. coli DH5α competent cells. Transformants were randomly picked and sequenced to confirm the presence of the intended mutation.
(§2) CHO-K1 cells were selected for expressing Kv channels due to their lack of endogenous Kv channels, while HEK293 or ND7/23 cells were used for Nav and Cav channel expression. CHO-K1 cells were cultured in a Dulbecco's modified Eagle's medium/Ham's F-12 nutrient mixture (DMEM-F12) medium, and HEK293T and ND7/23 cells in DMEM medium, all supplemented with 10% fetal bovine serum and 1% penicillin-streptomycin (all from Gibco, Thermo Fisher Scientific, Inc) under standard conditions (37 °C, 5% CO2, and saturated humidity). These cell lines were purchased from Stem Cell Bank, Chinese Academy of Sciences. Channel plasmids were cotransfected with pEGFP-N1 (encoding GFP) into the respective cells using lipofectamine 2000, following the manufacturer's instructions (Invitrogen, Thermo Fisher Scientific, Inc.). Nav1.9-GFP plasmid was transfected into ND7/23 using the X-tremeGENE HP DNA Transfection Reagent (Roche). After 4 to 6 h transfection, cells were seeded onto poly-lysine–coated coverslips, and 24 to 36 h later, transfected cells were ready for patch-clamp analysis.
(§3) Patch clamp experiments were conducted using an electrophysiology platform comprising a MultiClamp 700B amplifier and an Axon Digidata 1550 AD/DA convertor (Axon Instruments). Data acquisition was performed with pClamp 10.5 software (Axon Instruments). All experiments were performed at room temperature.
For Kv current recordings, the bath solution contained (in mM) the following: 140 NaCl, 5 KCl, 1 MgCl2, 2 CaCl2, 10 glucose, and 10 Hepes (pH 7.3, adjusted with NaOH), and the pipette solution contained (in mM) the following: 140 KCl, 2.5 MgCl2, 11 EGTA, and 10 Hepes (pH 7.3, adjusted with KOH). Series resistance was maintained below 10 MΩ and compensated to 80%. Concentration–response curves were fitted by the Hill equation to determine the toxin's potency. Whole cell conductance (G) at each depolarizing voltage (V) was determined using the equation: G = I/(V−Vrev), where I is the current amplitude, and Vrev is the reversal potential. The reversal potential for K^+ current was estimated to be −85.6 mV using the Nernst equation. G-V curves were obtained by plotting the normalized conductance as a function of V and fitted by the Boltzmann equation: y = 1/(1+ exp((Va-V)/k)), which Va is the midpoint voltage, V is the test potential, and k is the slope factor. The steady-state fast inactivation of Kv1.3 was measured using a two-pulses protocol. The cell was held at −120 mV, and a train of conditional voltages (−120–40 mV in 10 mV increments, 60 s) were applied to induce channel inactivation, followed by a +60 mV test pulse (300 ms) to assess the proportion of noninactivated channels. The sweep interval was set to 30 s. Currents at the test pulse (I) were normalized to the maximum value (Imax) and plotted as a function of the conditional voltage (V). The curve was fitted by the Boltzmann equation: I/Imax = A+(1 − A)/(1+exp ((V−Vh)/K)), where Vh is the half-maximum inactivation voltage, A represents the minimum channel availability, and k is the slope factor.

[2] = system: Kv1.1/1.3 S1-S2 chimeric channel; assay: Whole-cell patch clamp, chimeric channel; assay type: cell-based, human; details: +30 mV, mean ± SD
Text: (§4) To investigate the structural determinants underlying the differential regulatory effects of MrVIII on Kv1 channels, we employed a chimeric channel strategy. Using Kv1.3 as the template, the S1-S2, S3-S4, and S5-S6 transmembrane helices and their respective linkers from Kv1.1 were inserted to generate chimeras, generating the Kv1.3/1.1 S1-S2, Kv1.3/1.1 S3-S4, and Kv1.3/1.1 S5-S6 chimeric channels. […] These findings indicate that the S3-S4 is the key determinant for the differential inhibition of Kv1.1 and Kv1.3 by MrVIII. To further validate this conclusion, we constructed a reverse chimeric channel using Kv1.1 as the template, inserting the corresponding regions from Kv1.3 into Kv1.1. […] This finding more directly illustrates the exchange of the channel's voltage-dependence phenotype in toxin inhibition by swapping this S3-S4 between Kv1.1 and Kv1.3. […] In addition to confirming the differential role of S3-S4 between Kv1.1 and Kv1.3, we also substituted the S3-S4 of Kv1.4 and Kv1.7 into Kv1.3 to analyze MrVIII's inhibition profile. […] The IC50 for Kv1.3/1.7 S3-S4 could not be fitted, and inhi%(495 ms) was only 23.1 ± 10.0% (Fig. S2, E and F).
as §1, §2, §3
(§5) For Kv current recordings, the bath solution contained (in mM) the following: 140 NaCl, 5 KCl, 1 MgCl2, 2 CaCl2, 10 glucose, and 10 Hepes (pH 7.3, adjusted with NaOH), and the pipette solution contained (in mM) the following: 140 KCl, 2.5 MgCl2, 11 EGTA, and 10 Hepes (pH 7.3, adjusted with KOH). Series resistance was maintained below 10 MΩ and compensated to 80%. Concentration–response curves were fitted by the Hill equation to determine the toxin's potency. Whole cell conductance (G) at each depolarizing voltage (V) was determined using the equation: G = I/(V−Vrev), where I is the current amplitude, and Vrev is the reversal potential. […]

[3] = system: Kv1.3/1.1 S1-S2 chimeric channel; assay: Whole-cell patch clamp, chimeric channel; assay type: cell-based, human; details: +30 mV, 500 ms, holding −80 mV, mean ± SD, n = 4-5, read-out: IC50, Kv1.3/1.1 S1-S2 current
Text: as §4, §1, §2, §3, §5

[4] = system: Kv1.3/1.7 S3-S4 chimeric channel; assay: Whole-cell patch clamp, chimeric channel; assay type: cell-based, human; details: current at 495 ms, +30 mV, IC50 could not be fitted, mean ± SD, n = 5-6
Text: as §4, §1, §2, §3, §5

[5] = system: Kv1.3/Kv1.4 S3-S4 chimeric channel; assay: Whole-cell patch clamp, chimeric channel; assay type: cell-based, human/rat; details: +30 mV, mean ± SD, n = 5-6
Text: To investigate the structural determinants underlying the differential regulatory effects of MrVIII on Kv1 channels, we employed a chimeric channel strategy. Using Kv1.3 as the template, the S1-S2, S3-S4, and S5-S6 transmembrane helices and their respective linkers from Kv1.1 were inserted to generate chimeras, generating the Kv1.3/1.1 S1-S2, Kv1.3/1.1 S3-S4, and Kv1.3/1.1 S5-S6 chimeric channels. […] These findings indicate that the S3-S4 is the key determinant for the differential inhibition of Kv1.1 and Kv1.3 by MrVIII. To further validate this conclusion, we constructed a reverse chimeric channel using Kv1.1 as the template, inserting the corresponding regions from Kv1.3 into Kv1.1. […] This finding more directly illustrates the exchange of the channel's voltage-dependence phenotype in toxin inhibition by swapping this S3-S4 between Kv1.1 and Kv1.3. […] In addition to confirming the differential role of S3-S4 between Kv1.1 and Kv1.3, we also substituted the S3-S4 of Kv1.4 and Kv1.7 into Kv1.3 to analyze MrVIII's inhibition profile. […]
CHO-K1 cells were selected for expressing Kv channels due to their lack of endogenous Kv channels, while HEK293 or ND7/23 cells were used for Nav and Cav channel expression. […] After 4 to 6 h transfection, cells were seeded onto poly-lysine–coated coverslips, and 24 to 36 h later, transfected cells were ready for patch-clamp analysis. […]

T1 sequence (P22001 whole entry): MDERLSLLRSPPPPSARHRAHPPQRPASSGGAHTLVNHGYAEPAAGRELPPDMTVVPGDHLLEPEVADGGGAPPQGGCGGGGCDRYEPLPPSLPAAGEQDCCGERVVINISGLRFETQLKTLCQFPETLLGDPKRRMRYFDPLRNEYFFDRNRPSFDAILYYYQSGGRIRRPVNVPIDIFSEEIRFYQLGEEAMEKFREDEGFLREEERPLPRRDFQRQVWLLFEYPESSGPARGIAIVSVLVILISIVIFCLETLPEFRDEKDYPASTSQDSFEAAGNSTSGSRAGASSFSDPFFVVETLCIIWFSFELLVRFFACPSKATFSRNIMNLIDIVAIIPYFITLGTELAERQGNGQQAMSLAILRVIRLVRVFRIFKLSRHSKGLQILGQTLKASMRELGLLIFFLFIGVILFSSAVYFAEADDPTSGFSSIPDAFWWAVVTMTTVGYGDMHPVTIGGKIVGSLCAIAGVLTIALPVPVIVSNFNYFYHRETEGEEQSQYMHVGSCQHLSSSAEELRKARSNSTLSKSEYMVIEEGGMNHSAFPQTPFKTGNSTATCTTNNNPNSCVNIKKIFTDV

CC[C@H](C)[C@@H]1NC(=O)[C@H](Cc2ccc(O)cc2)NC(=O)[C@H](CCC(N)=O)NC(=O)[C@@H]2CCCN2C(=O)[C@@H]2CSSC[C@H](NC(=O)[C@H](C)NC(=O)[C@H](CO)NC(=O)[C@H](CCC(=O)O)NC(=O)[C@H](CCC(=O)O)NC(=O)[C@@H](N)[C@@H](C)O)C(=O)NCC(=O)NCC(=O)N[C@@H](Cc3ccccc3)C(=O)N[C@@H](CC(N)=O)C(=O)N[C@@H](C)C(=O)N[C@@H](CCCNC(=N)N)C(=O)N[C@H]3CSSC[C@H](NC1=O)C(=O)N[C@@H](CCCCN)C(=O)NCC(=O)N[C@@H](Cc1c[nH]c4ccccc14)C(=O)N[C@@H](CCCNC(=N)N)C(=O)N[C@@H]([C@@H](C)O)C(=O)N[C@@H](CCCCN)C(=O)N[C@@H](CCCNC(=N)N)C(=O)N[C@H](C(=O)N[C@@H](CC(C)C)C(=O)N[C@@H](CC(N)=O)C(=O)N1CCC[C@H]1C(=O)O)CSSC[C@H](NC(=O)[C@H](CCCCN)NC(=O)[C@H](Cc1c[nH]cn1)NC(=O)[C@H](CC(C)C)NC(=O)[C@@H]1CCCN1C3=O)C(=O)N2 [MrVIII] (H-TEESACGGFNARCPLHKCCPQYICKGWRTKRCLNP-OH; disulfide 6-19, 13-24, 18-32; N-terminus and C-terminus assumed)
Va of G-V curve of Kv1.3 after toxin ([1]; 5 nM MrVIII, control Va = −26.4 ± 4.6 mV, Boltzmann fit): −27.7 ± 5.1 mV | Vh of steady-state inactivation of Kv1.3 after toxin ([1]; 5 nM MrVIII, control Vh = −42.2 ± 4.7 mV, two-pulse protocol): −42.5 ± 2.4 mV | time constant for toxin association, Kv1.3 ([1]; 10 nM MrVIII, n = 6): 5.4 ± 1.2 s | IC50 ([1]; native toxin, n = 7, read-out: IC50, inhibition of Kv1.3 peak current): 4.4 ± 1.1 nM | IC50 ([1]; synthetic refolded toxin, n = 7, read-out: IC50, inhibition of Kv1.3 current): 4.8 ± 1.6 nM | time constant for dissociation from Kv1.3 ([1]; washout with bath solution after 10 nM MrVIII, n = 6): 33.4 ± 8.3 s | IC50 ([2]; current at 50 ms, n = 4-5): 103 ± 59.1 nM | inhi%(495 ms), Kv1.1/1.3 S1-S2 current ([2]; current at 495 ms): 60.5 ± 18.5% | IC50 [3]: 1.9 ± 1.1 nM | inhi%(495 ms), Kv1.3/1.7 S3-S4 current [4]: 23.1 ± 10.0% | IC50 ([5]; current at 50 ms): 117 ± 48.2 nM | inhi%(495 ms), Kv1.3/Kv1.4 S3-S4 current ([5]; current at 495 ms): 37.9 ± 5.4%
